Article PMC10452110, “Indole-3-Acetamido-Polyamines as Antimicrobial Agents and Antibiotic Adjuvants” (Biomolecules, 2023)

Experiments:
[1] = system: Staphylococcus aureus (ATCC 25923); test: Intrinsic antimicrobial activity (MIC) against S. aureus; assay type: cell-based; details: ATCC25923, S. aureus ATCC 25923, mean (n = 3), read-out: MIC S. a
Protocol: (§1) The susceptibility of bacterial strains Staphylococcus aureus (ATCC 25923), Escherichia coli (ATCC 25922) and Pseudomonas aeruginosa (ATCC 27853) to antibiotics and compounds was determined using previously reported protocols. Additional antimicrobial evaluation against MRSA (ATCC 43300), Klebsiella pneumoniae (ATCC 700603), Acinetobacter baumannii (ATCC 19606), Candida albicans (ATCC 90028) and Cryptococcus neoformans (ATCC 208821) was undertaken at the Community for Open Antimicrobial Drug Discovery at The University of Queensland (Australia) according to their standard protocols, as reported previously.

MRSA (ATCC 43300) = test: Intrinsic antimicrobial activity (MIC) against MRSA; assay type: cell-based; details: Staphylococcus aureus, MRSA ATCC 43300; mean (n = 2); read-out: MIC MRSA
Protocol: as §1

[2] = system: Pseudomonas aeruginosa (ATCC 27853); test: Intrinsic antimicrobial activity (MIC) against P. aeruginosa; assay type: cell-based; details: ATCC27853, P. aeruginosa ATCC 27853, mean (n = 3), read-out: MIC P. a
Protocol: as §1

[3] = system: Escherichia coli (ATCC 25922); test: Intrinsic antimicrobial activity (MIC) against E. coli; assay type: cell-based; details: ATCC25922, E. coli ATCC 25922, mean (n = 3), read-out: MIC E. c
Protocol: as §1

[4] = system: Candida albicans (ATCC 90028); test: Intrinsic antifungal activity (MIC) against C. albicans; assay type: cell-based; details: ATCC90028, C. albicans ATCC 90028, mean (n = 2), read-out: MIC C. a
Protocol: as §1

[5] = system: Cryptococcus neoformans (ATCC 208821); test: Intrinsic antifungal activity (MIC) against C. neoformans; assay type: cell-based; details: ATCC208821, C. neoformans ATCC 208821, mean (n = 2), read-out: MIC C. n
Protocol: as §1

Cytotoxicity assay = assay type: cell-based; details: human; HEK293 cells; mean (n = 2); read-out: Cytotoxicity: concentration of compound at 50% cytotoxicity (IC50)
Protocol: Cytotoxicity assays were conducted using the protocols previously reported.

human red blood cells = test: Hemolytic assay; assay type: cell-based; details: mean (n = 2)
Protocol: Hemolysis assays were conducted using the protocols previously reported.

P. aeruginosa ATCC 27853 = test: Enhancement of doxycycline action against P. aeruginosa; assay type: cell-based, Pseudomonas aeruginosa; details: doxycycline at 4.5 µM
Protocol: (§2) Antibiotic enhancer concentrations were determined using previously reported protocols.

E. coli ATCC 25922 = test: Enhancement of erythromycin action against E. coli; assay type: cell-based, Escherichia coli; details: erythromycin at 10.9 µM
Protocol: as §2

With `O=C(Cc1c[nH]c2ccccc12)NCCCNCCCCCCNCCCNC(=O)Cc1c[nH]c2ccccc12.O=C(O)C(F)(F)F.O=C(O)C(F)(F)F` [Compound 14b, N^1,N^6-Bis(3-(2-(1H-indol-3-yl)acetamido)propyl)hexane-1,6-diaminium 2,2,2-trifluoroacetate] the MIC [1] was 129 µM, the MIC (MRSA (ATCC 43300)) was < 0.2 µM and the MIC [2] was > 259 µM. For the same compound, the MIC [3] was > 129 µM, the MIC [4] was > 41 µM and the MIC [5] was < 0.2 µM. For the same compound, the IC50 (Cytotoxicity assay) was > 41 µM, the “Hemolysis: concentration of compound at 10% hemolytic activity (HC10)” value (“Hemolysis … at 10% hemolytic activity (HC10)” for short) (human red blood cells) was >41 µM and the “Dox/P. a fold change (ratio between intrinsic MIC of the test compound and combination MIC)” value (P. aeruginosa ATCC 27853) was > 2 fold. For the same compound, the “Dox/P. a: concentration required to restore doxycycline activity (combination MIC)” value (shortened to “Dox/P. a: concentration required”) (P. aeruginosa ATCC 27853) was 129 µM and the “Eryth/E. c: concentration required to restore erythromycin activity (combination MIC)” value (“Eryth/E. c: concentration required” below) (E. coli ATCC 25922) was > 259 µM.

In the case of `COc1cccc2c(CC(=O)NCCCNCCCCCCCCCCCCNCCCNC(=O)Cc3c[nH]c4c(OC)cccc34)c[nH]c12.O=C(O)C(F)(F)F.O=C(O)C(F)(F)F` [Compound 19f, N^1,N^12-Bis(3-(2-(7-methoxy-1H-indol-3-yl)acetamido)propyl)dodecane-1,12-diaminium 2,2,2-trifluoroacetate], the MIC [1] is reported as 13.6 µM, the MIC (MRSA (ATCC 43300)) is reported as ≤ 0.27 µM and the MIC [2] is reported as > 218 µM. For the same compound, the MIC [3] was 109 µM, the MIC [4] was 34.9 µM and the MIC [5] was ≤ 0.27 µM. The IC50 (Cytotoxicity assay) was > 35 µM, the “Hemolysis … at 10% hemolytic activity (HC10)” value (human red blood cells) was 10.7 µM and the “Dox/P. a fold change (ratio between intrinsic MIC of the test compound and combination MIC)” value (P. aeruginosa ATCC 27853) was > 1 fold. The “Dox/P. a: concentration required” value (P. aeruginosa ATCC 27853) was 218 µM and the “Eryth/E. c: concentration required” value (E. coli ATCC 25922) was 109 µM.

In the case of `Cc1cccc2c(CC(=O)NCCCNCCCCCCCCCCNCCCNC(=O)Cc3c[nH]c4c(C)cccc34)c[nH]c12.O=C(O)C(F)(F)F.O=C(O)C(F)(F)F` [Compound 20e, N^1,N^10-Bis(3-(2-(7-methyl-1H-indol-3-yl)acetamido)propyl)decane-1,10-diaminium 2,2,2-trifluoroacetate], the MIC [1] is reported as 233 µM, the MIC (MRSA (ATCC 43300)) is reported as ≤ 0.29 µM and the MIC [2] is reported as > 233 µM. The MIC [3] was > 233 µM, the MIC [4] was 18.7 µM and the MIC [5] was ≤ 0.29 µM. For the same compound, the IC50 (Cytotoxicity assay) was > 37 µM, the “Hemolysis … at 10% hemolytic activity (HC10)” value (human red blood cells) was 12.7 µM and the “Dox/P. a fold change (ratio between intrinsic MIC of the test compound and combination MIC)” value (P. aeruginosa ATCC 27853) was 1 fold. For the same compound, the “Dox/P. a: concentration required” value (P. aeruginosa ATCC 27853) was > 233 µM and the “Eryth/E. c: concentration required” value (E. coli ATCC 25922) was > 233 µM.

With `O=C(Cc1c[nH]c2c(F)cccc12)NCCCNCCCCCCCNCCCNC(=O)Cc1c[nH]c2c(F)cccc12.O=C(O)C(F)(F)F.O=C(O)C(F)(F)F` [Compound 18c, N^1,N^7-Bis(3-(2-(7-fluoro-1H-indol-3-yl)acetamido)propyl)heptane-1,7-diaminium 2,2,2-trifluoroacetate] the MIC [1] was 30.4 µM, the MIC (MRSA (ATCC 43300)) was ≤ 0.3 µM and the MIC [2] was > 243 µM. The MIC [3] was > 243 µM, the MIC [4] was 38.9 µM and the MIC [5] was ≤ 0.3 µM. The IC50 (Cytotoxicity assay) was > 39 µM, the “Hemolysis … at 10% hemolytic activity (HC10)” value (human red blood cells) was 1.94 µM and the “Dox/P. a fold change (ratio between intrinsic MIC of the test compound and combination MIC)” value (P. aeruginosa ATCC 27853) was > 1 fold. The “Dox/P. a: concentration required” value (P. aeruginosa ATCC 27853) was 243 µM and the “Eryth/E. c: concentration required” value (E. coli ATCC 25922) was 243 µM.

For `Cc1cccc2c(CC(=O)NCCCNCCCCNCCCNC(=O)Cc3c[nH]c4c(C)cccc34)c[nH]c12.O=C(O)C(F)(F)F.O=C(O)C(F)(F)F` [Compound 20a, N^1,N^4-Bis(3-(2-(7-methyl-1H-indol-3-yl)acetamido)propyl)butane-1,4-diaminium 2,2,2-trifluoroacetate], the MIC [1] was 32.3 µM, the MIC (MRSA (ATCC 43300)) was ≤ 0.32 µM and the MIC [2] was > 259 µM. For the same compound, the MIC [3] was 259 µM, the MIC [4] was 41.4 µM and the MIC [5] was ≤ 0.32 µM. The IC50 (Cytotoxicity assay) was > 41 µM, the “Hemolysis … at 10% hemolytic activity (HC10)” value (human red blood cells) was 4.11 µM and the “Dox/P. a fold change (ratio between intrinsic MIC of the test compound and combination MIC)” value (P. aeruginosa ATCC 27853) was 1 fold. The “Dox/P. a: concentration required” value (P. aeruginosa ATCC 27853) was > 259 µM and the “Eryth/E. c: concentration required” value (E. coli ATCC 25922) was 64.7 µM.
